Publication PMC12865225 (Clinical and Translational Science, 2026)
Marks after values point to notes of the source that are not given here.

Key:
[1] = tested on: T1, MRP2; assay: Efflux transport assay in MRP2 HEK293 membrane vesicles; assay type: biochemical, human; conditions: 5 and 50 µM, 10 min
T1 construct: made in house; host or cells: membrane vesicles from HEK293 cells expressing the transporter

[2] = target: T2, BCRP (Homo sapiens, UniProt Q9UNQ0); assay: BCRP inhibition, rosuvastatin transport in HEK293 membrane vesicles; assay type: biochemical; conditions: R = I gut/IC50, FDA cut-off ≥ 10
T2 construct: made in house; host or cells: membrane vesicles from HEK293 cells expressing the transporter
T2 sequence (Q9UNQ0 1-655): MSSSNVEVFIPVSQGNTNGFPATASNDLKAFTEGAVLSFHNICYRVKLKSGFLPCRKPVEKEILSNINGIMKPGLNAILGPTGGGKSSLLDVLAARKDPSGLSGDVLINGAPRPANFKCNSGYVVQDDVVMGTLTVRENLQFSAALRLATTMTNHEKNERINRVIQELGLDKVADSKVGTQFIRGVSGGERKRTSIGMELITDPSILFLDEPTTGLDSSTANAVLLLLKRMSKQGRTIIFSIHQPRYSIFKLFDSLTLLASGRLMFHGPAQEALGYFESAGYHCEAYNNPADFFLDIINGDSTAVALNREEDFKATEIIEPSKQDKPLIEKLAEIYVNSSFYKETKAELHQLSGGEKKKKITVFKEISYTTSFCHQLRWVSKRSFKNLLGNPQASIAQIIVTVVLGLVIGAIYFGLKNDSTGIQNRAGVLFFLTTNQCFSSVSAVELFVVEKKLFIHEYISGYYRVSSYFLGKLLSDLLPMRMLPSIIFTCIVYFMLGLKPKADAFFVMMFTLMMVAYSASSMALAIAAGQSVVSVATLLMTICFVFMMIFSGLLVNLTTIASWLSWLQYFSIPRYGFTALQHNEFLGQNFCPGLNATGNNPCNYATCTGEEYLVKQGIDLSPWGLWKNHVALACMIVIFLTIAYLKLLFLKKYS
Description: Membrane vesicles, 5 μL (7.5 μg of total protein), prepared as previously reported, were aliquoted to wells of a conical‐shaped 96‐well plate. The plate was incubated for 10 min at +37°C before the initiation of transport by adding 25 μL of TS‐buffer (10 mM Tris, 250 mM sucrose, pH adjusted to 7.4 with HEPES) containing magnesium chloride (10 mM final in the reaction), adenosine triphosphate (ATP) or adenosine monophosphate (AMP), 4 mM final in the reaction, and the transporter substrate and inhibitor. Each experiment included triplicate samples for both ATP and AMP samples. The concentrations of rosuvastatin and N‐methyl‐quinidine were 1 μM in the BCRP and P‐gp vesicle inhibition assays, respectively. The transport reaction times were 1 and 2 min for BCRP and P‐gp, respectively. […] The transport reactions were quenched by adding 200 μL of cold TS‐buffer to each well and transferring the samples to a 96‐multiwell 1.0 μm glass fiber filter plate (Merck Millipore, Darmstadt, Germany) kept under vacuum. […]
For the inhibition data analysis, the average of measured concentrations in the control cells was subtracted from the average of measured concentrations in transporter‐expressing cells for each inhibitor concentration and then normalized to the vehicle sample that represents 100% transport activity. […]

Row | transport by MRP2 [1] | Calculated R-value BCRP [2] | Structure (SMILES)
1 | did not transport | 51 ^b | Cc1onc(-c2c(Cl)cccc2Cl)c1C(=O)N[C@@H]1C(=O)N2[C@@H]1SC(C)(C)[C@@H]2C(=O)O [Dicloxacillin]
2 | did not transport | 23 ^b | Cc1onc(-c2c(F)cccc2Cl)c1C(=O)N[C@@H]1C(=O)N2[C@@H]1SC(C)(C)[C@@H]2C(=O)O [Flucloxacillin]
